# Experimental data from patent US9464092B2, “Transient protection of normal cells during chemotherapy” (G1 Therapeutics, Inc., priority 2013, dated 2016).
# Test system: telomerized human diploid fibroblasts (tHDFs)
# Assay: γ-H2AX DNA damage assay in tHDF cells with chemotherapy
# Type: cell-based
# Conditions: pretreatment before carboplatin, doxorubicin, etoposide, camptothecin or paclitaxel
# Procedure: Cell survival was determined by Cell TiterGlo assay per manufacturer's recommendations. For both γ-H2AX and caspase 3/7 assays, cells were plated and allowed to become adherent for 24 hours. […] For γ-H2AX, cells were harvested for analysis 8 hours after chemotherapy exposure. For the γ-H2AX assay, cells were fixed, permeabilized, and stained with anti-γ-H2AX as per the γ-H2AX Flow Kit (Millipore) and quantitated by flow cytometry. Data was analyzed using FlowJo 2.2 software developed by TreeStar, Inc. For the in vitro caspase 3/7 assay, cells were harvested 24 hours post chemotherapy treatment. Caspase 3/7 activation was measured using the Caspase-Glo® 3/7 Assay System (Promega) per manufacturer's recommendations.
compound,measurement,value
CN1CCN(c2ccc(Nc3ncc4cc5n(c4n3)C3(CCCCC3)CNC5=O)nc2)CC1 [Compound T],DNA damage as measured by γ-H2AX formation,attenuated DNA damage
